Source: US20040247674A1, “Drug delivery system” (priority 2001, published 2004)

Assay: release rates of active agents from core-membrane implants
Type: physicochemical
Settings: for release rate over time: Example 4 implant (FIG. 12): membrane PDMS/trifluoropropyl modified PDMS, fluoro-content 55 wt-%, thickness 0.25 mm
Source text: The implant structure was as disclosed in FIG. 2. The first part of the core consisted of PDMS comprising levonorgestrel and the length was 35 mm. The second part of the core consisted of PEO-PDMS having 50% of PEO, comprising estradiol, and the length was 8 mm.
The core parts were encased in a membrane consisting of PEO-PDMS in a ratio of 10:90. The thickness of the membrane was 0.2 mm and the outer diameter of the implant 2.48 mm.
The implant structure was as disclosed in FIG. 2. The first part of the core consisted of PEO-PDMS in a ratio of 50:50 comprising compound 1 and the length was 34 mm. The second part of the core consisted of PEO-PDMS having 50% of PEO, comprising estradiol, and the length was 6 mm.
The core parts were encased in a membrane consisting of PEO-PDMS in a ratio of 20:80. The thickness of the membrane was 0.2 mm and the outer diameter of the implant 2.48 mm.
The implant structure was as disclosed in FIG. 2. The first part of the core consisted of Pt-catalysed PDMS comprising 60 weight-% MENT having a length of 44 mm and a diameter of 3.0 mm. The second part of the core consisted of peroxide-catalysed PDMS comprising 50 weight-% gestodene having a length of 12 mm and a diameter of 3.0 mm.
Both core parts were encapsulated by a membrane consisting of a mixture of PDMS and trifluoropropyl modified PDMS. The fluoro-content in the membrane varied from 55 weight-% to 75 weight-%. The thickness of the membrane was 0.25 or 0.35 mm and thus the outer diameter of the implant 3.5 or 3.7 mm, respectively.
MENT is represented by the trinagles and gestodene by the lozenges.

| SMILES | release rate over time | release rate of compound 1 versus target (Example 2 implant (FIG. 10): PEO-PDMS 50:50 core part 34 mm, membrane PEO-PDMS 20:80, 0.2 mm, target 50 μg/day) | release rate of gestodene, membrane thickness 0.25 mm compared with 0.35 mm (Example 4 implant (FIG. 14): membrane fluoro-content 60 wt-%) |
| --- | --- | --- | --- |
| C[C@@H]1CC2=CC(=O)CC[C@@H]2[C@H]2CC[C@]3(C)[C@@H](O)CC[C@H]3[C@@H]21 [MENT, 7-α-methyl-19-nortestosterone] | essentially constant over time |  |  |
| CC(=O)c1ccc(C2C[C@@]3(C)[C@@H](CCC3(O)C(F)(F)C(F)(F)F)[C@@H]3CCC4=CC(=O)CCC4=C23)cc1 (stereo partly shown) [compound 1, 11-(4-Acetylphenyl)-17-hydroxy-17-(1,1,2,2,2-pentafluoroethyl)estra-4,9-dien-3-one] |  | target release rates were obtained |  |
| C#C[C@]1(O)C=C[C@H]2[C@@H]3CCC4=CC(=O)CC[C@@H]4[C@H]3CC[C@@]21CC [gestodene] | essentially constant over time |  | higher |
